Reference: the supplement of paper PMC10307832

Experiments:
Experiment in all cases: relative viability (nuclei count vs DMSO), 5 days (fraction); higher = more cells survive
ABC-1 = tested on: ABC-1
How it was run: (§1)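 Medians of duplicate plates are given as relative viability. That measure is the nuclei count in treated wells divided by the count in vehicle wells. Counts were taken on 4× images of lung cancer cell lines in 1536-well plates, 5 days after pin-tool dosing the day after seeding with one drug alone or a fixed anchor-drug dose plus five library-drug doses (not always all listed) in √10 steps.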

CAL-12T = tested on: CAL-12T
How it was run: as §1

COR-L 105 = tested on: COR-L 105
How it was run: as §1

ChaGo-K-1 = tested on: ChaGo-K-1
How it was run: as §1

EMC-BAC-2 = tested on: EMC-BAC-2
How it was run: as §1

EPLC-272H = tested on: EPLC-272H
How it was run: as §1

HCC-15 = tested on: HCC-15
How it was run: as §1

HCC-78 = tested on: HCC-78
How it was run: as §1

HOP-62 = tested on: HOP-62
How it was run: as §1

LXF-289 = tested on: LXF-289
How it was run: as §1

NCI-H1666 = tested on: NCI-H1666
How it was run: as §1

NCI-H1755 = tested on: NCI-H1755
How it was run: as §1

NCI-H1915 = tested on: NCI-H1915
How it was run: as §1

NCI-H1975 = tested on: NCI-H1975
How it was run: as §1

NCI-H1993 = tested on: NCI-H1993
How it was run: as §1

NCI-H2023 = tested on: NCI-H2023
How it was run: as §1

NCI-H2085 = tested on: NCI-H2085
How it was run: as §1

NCI-H2126 = tested on: NCI-H2126
How it was run: as §1

NCI-H3122 = tested on: NCI-H3122
How it was run: as §1

NCI-H322M = tested on: NCI-H322M
How it was run: as §1

NCI-H358 = tested on: NCI-H358
How it was run: as §1

NCI-H441 = tested on: NCI-H441
How it was run: as §1

UMC-11 = tested on: UMC-11
How it was run: as §1

CC1(C)CCC(c2ccc(Cl)cc2)=C(CN2CCN(c3ccc(C(=O)NS(=O)(=O)c4ccc(N[C@H](CCN5CCOCC5)CSc5ccccc5)c(S(=O)(=O)C(F)(F)F)c4)cc3)CC2)C1 [Navitoclax] + C[C@@H](Oc1cc(-c2cnn(C3CCNCC3)c2)cnc1N)c1c(Cl)ccc(F)c1Cl [Crizotinib] (partner 1 µM)
relative viability (ABC-1; first compound 0.005 µM): 1.19 | relative viability (ABC-1; first compound 0.01581 µM): 1.4 | relative viability (ABC-1; first compound 0.05 µM): 1.19 | relative viability (ABC-1; first compound 0.1581 µM): 1.14 | relative viability (ABC-1; first compound 0.5 µM): 0.983 | relative viability (CAL-12T; first compound 0.005 µM): 0.589 | relative viability (CAL-12T; first compound 0.01581 µM): 0.653 | relative viability (CAL-12T; first compound 0.05 µM): 0.725 | relative viability (CAL-12T; first compound 0.1581 µM): 0.744 | relative viability (CAL-12T; first compound 0.5 µM): 0.536 | relative viability (COR-L 105; first compound 0.005 µM): 0.651 | relative viability (COR-L 105; first compound 0.01581 µM): 0.98 | relative viability (COR-L 105; first compound 0.05 µM): 0.773 | relative viability (COR-L 105; first compound 0.1581 µM): 0.927 | relative viability (COR-L 105; first compound 0.5 µM): 0.699 | relative viability (ChaGo-K-1; first compound 0.005 µM): 1.1 | relative viability (ChaGo-K-1; first compound 0.01581 µM): 1.11 | relative viability (ChaGo-K-1; first compound 0.05 µM): 0.601 | relative viability (ChaGo-K-1; first compound 0.1581 µM): 1.1 | relative viability (ChaGo-K-1; first compound 0.5 µM): 1.19 | relative viability (EMC-BAC-2; first compound 0.005 µM): 0.716 | relative viability (EMC-BAC-2; first compound 0.01581 µM): 0.689 | relative viability (EMC-BAC-2; first compound 0.05 µM): 0.743 | relative viability (EMC-BAC-2; first compound 0.1581 µM): 0.703 | relative viability (EMC-BAC-2; first compound 0.5 µM): 0.701 | relative viability (EPLC-272H; first compound 0.005 µM): 1.37 | relative viability (EPLC-272H; first compound 0.1581 µM): 0.99 | relative viability (EPLC-272H; first compound 0.5 µM): 1.08 | relative viability (HCC-15; first compound 0.005 µM): 0.802 | relative viability (HCC-15; first compound 0.01581 µM): 0.848 | relative viability (HCC-15; first compound 0.05 µM): 0.883 | relative viability (HCC-15; first compound 0.1581 µM): 0.822 | relative viability (HCC-15; first compound 0.5 µM): 0.786 | relative viability (HCC-78; first compound 0.005 µM): 0.368 | relative viability (HCC-78; first compound 0.01581 µM): 0.376 | relative viability (HCC-78; first compound 0.1581 µM): 0.345 | relative viability (HCC-78; first compound 0.5 µM): 0.322 | relative viability (HOP-62; first compound 0.005 µM): 0.965 | relative viability (HOP-62; first compound 0.01581 µM): 1.09 | relative viability (HOP-62; first compound 0.05 µM): 0.926 | relative viability (HOP-62; first compound 0.1581 µM): 0.917 | relative viability (HOP-62; first compound 0.5 µM): 1.03 | relative viability (LXF-289; first compound 0.005 µM): 0.736 | relative viability (LXF-289; first compound 0.01581 µM): 0.836 | relative viability (LXF-289; first compound 0.05 µM): 0.787 | relative viability (LXF-289; first compound 0.1581 µM): 0.797 | relative viability (LXF-289; first compound 0.5 µM): 0.794 | relative viability (NCI-H1666; first compound 0.005 µM): 0.991 | relative viability (NCI-H1666; first compound 0.01581 µM): 1.08 | relative viability (NCI-H1666; first compound 0.05 µM): 1.03 | relative viability (NCI-H1666; first compound 0.1581 µM): 0.879 | relative viability (NCI-H1666; first compound 0.5 µM): 0.975 | relative viability (NCI-H1755; first compound 0.005 µM): 0.823 | relative viability (NCI-H1755; first compound 0.01581 µM): 0.903 | relative viability (NCI-H1755; first compound 0.05 µM): 0.715 | relative viability (NCI-H1755; first compound 0.1581 µM): 0.859 | relative viability (NCI-H1755; first compound 0.5 µM): 0.89 | relative viability (NCI-H1915; first compound 0.005 µM): 0.915 | relative viability (NCI-H1915; first compound 0.01581 µM): 0.881 | relative viability (NCI-H1915; first compound 0.05 µM): 0.877 | relative viability (NCI-H1915; first compound 0.1581 µM): 0.879 | relative viability (NCI-H1915; first compound 0.5 µM): 0.858 | relative viability (NCI-H1975; first compound 0.005 µM): 0.836 | relative viability (NCI-H1975; first compound 0.01581 µM): 1.07 | relative viability (NCI-H1975; first compound 0.05 µM): 1.12 | relative viability (NCI-H1975; first compound 0.1581 µM): 0.921 | relative viability (NCI-H1975; first compound 0.5 µM): 0.887 | relative viability (NCI-H1993; first compound 0.005 µM): 0.89 | relative viability (NCI-H1993; first compound 0.01581 µM): 1 | relative viability (NCI-H1993; first compound 0.05 µM): 0.848 | relative viability (NCI-H1993; first compound 0.1581 µM): 0.853 | relative viability (NCI-H1993; first compound 0.5 µM): 0.866 | relative viability (NCI-H2023; first compound 0.005 µM): 0.668 | relative viability (NCI-H2023; first compound 0.01581 µM): 0.65 | relative viability (NCI-H2023; first compound 0.05 µM): 0.694 | relative viability (NCI-H2023; first compound 0.1581 µM): 0.738 | relative viability (NCI-H2023; first compound 0.5 µM): 0.662 | relative viability (NCI-H2085; first compound 0.005 µM): 0.862 | relative viability (NCI-H2085; first compound 0.01581 µM): 0.838 | relative viability (NCI-H2085; first compound 0.05 µM): 0.861 | relative viability (NCI-H2085; first compound 0.1581 µM): 0.822 | relative viability (NCI-H2085; first compound 0.5 µM): 0.909 | relative viability (NCI-H2126; first compound 0.005 µM): 1.04 | relative viability (NCI-H2126; first compound 0.01581 µM): 1.05 | relative viability (NCI-H2126; first compound 0.05 µM): 1.07 | relative viability (NCI-H2126; first compound 0.1581 µM): 1.01 | relative viability (NCI-H2126; first compound 0.5 µM): 0.972 | relative viability (NCI-H3122; first compound 0.005 µM): 0.254 | relative viability (NCI-H3122; first compound 0.01581 µM): 0.308 | relative viability (NCI-H3122; first compound 0.05 µM): 0.244 | relative viability (NCI-H3122; first compound 0.1581 µM): 0.306 | relative viability (NCI-H3122; first compound 0.5 µM): 0.292 | relative viability (NCI-H322M; first compound 0.005 µM): 0.885 | relative viability (NCI-H322M; first compound 0.01581 µM): 0.954 | relative viability (NCI-H322M; first compound 0.05 µM): 0.839 | relative viability (NCI-H322M; first compound 0.1581 µM): 0.858 | relative viability (NCI-H322M; first compound 0.5 µM): 0.92 | relative viability (NCI-H358; first compound 0.005 µM): 0.567 | relative viability (NCI-H358; first compound 0.01581 µM): 0.595 | relative viability (NCI-H358; first compound 0.05 µM): 0.634 | relative viability (NCI-H358; first compound 0.1581 µM): 0.506 | relative viability (NCI-H358; first compound 0.5 µM): 0.743 | relative viability (NCI-H441; first compound 0.005 µM): 0.657 | relative viability (NCI-H441; first compound 0.01581 µM): 0.865 | relative viability (NCI-H441; first compound 0.05 µM): 0.734 | relative viability (NCI-H441; first compound 0.1581 µM): 0.764 | relative viability (NCI-H441; first compound 0.5 µM): 0.621 | relative viability (UMC-11; first compound 0.005 µM): 0.646 | relative viability (UMC-11; first compound 0.01581 µM): 0.583 | relative viability (UMC-11; first compound 0.1581 µM): 0.636 | relative viability (UMC-11; first compound 0.5 µM): 0.401
